Experimental data taken from PMC3355380, “Back to the Future: Lessons Learned in Modern Target-based and Whole-Cell Lead Optimization of Antimalarials” (Current Topics in Medicinal Chemistry, 2012).
In brackets after ≈: the same amount, converted by molar mass. Read-outs that look alike come from different tables or passages of the source.

Columns and labels:
[1] = system: Plasmodium berghei; assay: P. berghei murine model; assay type: in vivo; conditions: for Activity (%): average parasitemia reduction; for Cure Rate (%): cure was no parasites at day 30
[2] = target: recombinant PfCDPK1 (Plasmodium falciparum, UniProt P62344); assay: PfCDPK1 enzyme inhibition; assay type: biochemical
From the text: In P. falciparum, calcium-dependent protein kinase 1 (PfCDPK1) is expressed during schizogony in the blood and sporozoite stages and is ultimately required for parasite invasion of host cells, parasite motility, and potentially cytokinesis. We identified a series of purine-based, ATP competitive kinase inhibitors from a target-based screen of approximately 20,000 compounds on recombinant PfCDPK1 [9]. Of the most promising hits, the 2,6,9-trisubstitutes purines made up the largest class of compounds coming out of the screen and were therefore chosen as a lead series for chemical optimization.

[3] = system: P. falciparum 3D7; assay: P. falciparum 3D7 proliferation assay; assay type: cell-based, Plasmodium falciparum; conditions: Plasmodium falciparum, 3D7
From the text: (§1) We screened both our in-house compound collection (~2.3M compounds) and natural products library (12,000 compounds) using a cell based Plasmodium falciparum proliferation assay. This screen provided data on a large number of chemically diverse anti-malarial compounds. These nearly 5700 hits have been deposited into the public EBI database by GNF/Novartis. A number of these hits originated from kinase-directed libraries and many of which are pan-kinase inhibitors. De-convoluting and eliminating inherent kinase activity with many of these scaffolds while maintaining cellular potency was the first step in the hit-to-lead phase for these particular chemotypes. What follows is a summary of the chemical optimization of some kinase-like and non-kinase scaffolds which came out of the whole-cell screening effort.

[4] = cytotoxicity on CHO cells; assay type: cell-based; conditions: Chinese hamster
[5] = cytotoxicity on HEp2 cells; assay type: cell-based; conditions: human
[6] = cytotoxicity on HeLa cells; assay type: cell-based; conditions: human
[7] = cytotoxicity on Huh7 cells; conditions: human, Huh7 cells
[8] = system: P. falciparum W2; assay: P. falciparum W2 proliferation assay; assay type: cell-based; conditions: Plasmodium falciparum, piperidyl benzamides, mean of two experiments
From the text: as §1

[9] = system: fifteen P. falciparum strains; assay: panel of fifteen P. falciparum wild type and drug resistant strains; assay type: cell-based; conditions: Plasmodium falciparum, read-out: in vitro EC50s across fifteen P. falciparum strains
[10] = aqueous solubility; assay type: physicochemical; conditions: aqueous medium, pH 6.8, aqueous buffer
[11] = system: 40 mammalian kinases; assay: panel of 40 mammalian kinases; assay type: biochemical
[12] = purines, mean of two experiments, read-out: P. falciparum 3D7 EC50
[13] = mean of two experiments, read-out: PfCDPK1 IC50
[14] = piperidyl benzamides, mean of two experiments, read-out: P. falciparum 3D7 EC50

Chain of recombinant PfCDPK1 (P62344 whole entry): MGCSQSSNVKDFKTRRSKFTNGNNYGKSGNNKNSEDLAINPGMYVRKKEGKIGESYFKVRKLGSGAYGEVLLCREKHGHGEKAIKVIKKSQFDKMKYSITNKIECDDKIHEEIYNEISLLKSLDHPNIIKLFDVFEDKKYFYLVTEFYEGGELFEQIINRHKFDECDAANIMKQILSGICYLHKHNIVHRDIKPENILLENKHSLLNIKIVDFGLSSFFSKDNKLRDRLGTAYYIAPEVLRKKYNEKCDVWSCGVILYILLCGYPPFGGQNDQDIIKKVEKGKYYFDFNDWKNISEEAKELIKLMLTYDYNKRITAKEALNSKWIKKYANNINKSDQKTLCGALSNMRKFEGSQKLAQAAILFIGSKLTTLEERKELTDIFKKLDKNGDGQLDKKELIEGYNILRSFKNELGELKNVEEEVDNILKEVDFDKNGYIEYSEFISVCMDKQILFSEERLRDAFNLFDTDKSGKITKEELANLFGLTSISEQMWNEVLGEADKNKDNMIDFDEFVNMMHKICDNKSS

Question: For `C[C@H]1[C@H](OC(=O)CCC(=O)O)O[C@@H]2O[C@@]3(C)CC[C@H]4[C@H](C)CC[C@@H]1[C@@]24OO3` [AS, artesunate, reference compound], which “Activity (%)” value ([1]; 1 x 30 mg/kg, 7% Tween 80/3% ethanol (20: 75% PEG300/25%D5W)) is on record?
Answer: The value was 89%.

Question: What about the “Activity (%)” value ([1]; 1 x 30 mg/kg, 10% ethanol, 30% PEG400, 6% vitamin E TPGS (30: 0.5% MCM / 0.1% Solutol HS15)) of the same molecule?
Answer: The value was 92.2%.

Question: And the “Cure Rate (%)” value ([1]; 1 x 30 mg/kg)?
Answer: The value was 0%.

Question: What about the “Survival” value ([1]; 1 x 30 mg/kg, untreated mice 6-7 days) of the same molecule?
Answer: The value was 7.2 days.

Question: What about the “Survival” value ([1]; 1 x 30 mg/kg, untreated mice 6-7 days, Table 10) of the same molecule?
Answer: The value was 7.3 days.

Question: And the “Activity (%)” value ([1]; 1 x 100 mg/kg)?
Answer: The value was 97%.

Question: What about the “Survival” value ([1]; 1 x 100 mg/kg, untreated mice 6-7 days) of the same molecule?
Answer: The value was 6.7 days.

Question: What about the “Survival” value ([1]; 3 x 30 mg/kg, 30 day experiment, Table 10) of the same molecule?
Answer: The value was 11.8 days.

Question: And the “Activity (%)” value ([1]; 3 x 30 mg/kg)?
Answer: Its value is 98%.

Question: And the “Activity (%)” value ([1]; 3 x 30 mg/kg, Table 10)?
Answer: The value was 99.0%.

Question: What about the “Cure Rate (%)” value ([1]; 3 x 30 mg/kg) of the same molecule?
Answer: Its value is 0%.

Question: What about the “Survival” value ([1]; 3 x 30 mg/kg, untreated mice 6-7 days) of the same molecule?
Answer: Its value is 7.2 days.

Question: Which IC50 [2] does the source give for `N[C@H]1CC[C@H](Nc2nc(Nc3ccc(C(=O)N4CCCCC4)cc3)c3ncn(-c4cccc(F)c4)c3n2)CC1` [Compound 2, purfalcamine] here?
Answer: The IC50 was 17 nM.

Question: What about the “improvement in enzyme potency (2 vs. 3)” value ([2]; compound 2 versus compound 3) of the same molecule?
Answer: The value was “greater than 200 fold”.

Question: What about the EC50 [3, 12] of the same molecule?
Answer: Its EC50 is 230 nM.

Question: And the EC50 [4]?
Answer: The EC50 was 12300 nM.

Question: And the EC50 [5]?
Answer: The EC50 was 7200 nM.

Question: And the EC50 [6]?
Answer: Its EC50 is 7000 nM.

Question: And the EC50 [7]?
Answer: The EC50 was 5500 nM.

Question: Which IC50 [2, 13] does the source give for `N[C@H]1CC[C@H](Nc2nc(Nc3ccc(C(=O)N4CCCCC4)cc3)c3ncn(-c4ccc(OCc5ccccc5)cc4)c3n2)CC1` [Compound 3] here?
Answer: The IC50 was 4040 nM.

Question: And the EC50 [3, 12]?
Answer: The EC50 was 312 nM.

Question: What does the source list for `N[C@H]1CC[C@H](Nc2nc(Nc3ccc(C(=O)N4CCCCC4)cc3)c3ncn(-c4ccc5c(c4)OCO5)c3n2)CC1` [Compound 4]?
Answer: IC50 [2, 13]: 342 nM; EC50 [3, 12]: 400 nM

Question: For `CCOc1ccc(-n2cnc3c(Nc4ccc(C(=O)N5CCCCC5)cc4)nc(N[C@H]4CC[C@H](N)CC4)nc32)cc1` [Compound 5], which IC50 [2] is on record?
Answer: Its IC50 is 240 nM.

Question: What about the EC50 [3, 12] of the same molecule?
Answer: The EC50 was 535 nM.

Question: Which IC50 [2, 13] does the source give for `N[C@H]1CC[C@H](Nc2nc(Nc3ccc(C(=O)N4CCCCC4)cc3)c3ncn(-c4cccc(C(=O)O)c4)c3n2)CC1` [Compound 6] here?
Answer: The IC50 was 71 nM.

Question: And the EC50 [3, 12]?
Answer: Its EC50 is greater than 10000 nM.

Question: For `N[C@H]1CC[C@H](Nc2nc(Nc3ccc(C(=O)N4CCCCC4)cc3)c3ncn(-c4ccc(C(=O)O)cc4)c3n2)CC1` [Compound 7], which IC50 [2, 13] is on record?
Answer: Its IC50 is 28 nM.

Question: And the EC50 [3, 12]?
Answer: Its EC50 is greater than 10000 nM.

Question: Which EC50 [3, 14] does the source give for `O=C(Nc1cccc(Cl)c1)c1cc(N2CCC(N3CCCC3)CC2)cc(C(F)(F)F)c1` [Compound 11] here?
Answer: The EC50 was 134 ± 56 nM.

Question: And the EC50 [8]?
Answer: Its EC50 is 888 ± 112 nM.

Question: Which EC50 [3, 14] does the source give for `O=C(Nc1cccc(Cl)c1)c1cc(N2CCC(N3CCCCC3)CC2)cc(C(F)(F)F)c1` [Compound 12] here?
Answer: The EC50 was 97 ± 18 nM.

Question: And the EC50 [8]?
Answer: Its EC50 is 276 ± 14 nM.

Question: For `O=C(Nc1cccc(C(F)(F)F)c1)c1cc(N2CCC(N3CCCCC3)CC2)cc(C(F)(F)F)c1` [Compound 13], which EC50 [3, 14] is on record?
Answer: Its EC50 is 149 nM.

Question: And the EC50 [8]?
Answer: Its EC50 is 299 nM.

Question: What does the source list for `CC1CCN(C2CCN(c3cc(C(=O)Nc4cccc(Cl)c4)cc(C(F)(F)F)c3)CC2)CC1` [Compound 14]?
Answer: EC50 [3, 14]: 140 nM; EC50 [8]: 323 nM; EC50 [9]: 100 to 300 nM

Question: With `CC1CCCN(C2CCN(c3cc(C(=O)Nc4cccc(C(F)(F)F)c4)cc(C(F)(F)F)c3)CC2)C1` (stereo not shown) [Compound 15] as the molecule, how does the EC50 [3, 14] read?
Answer: The EC50 was 58 nM.

Question: And the EC50 [8]?
Answer: The EC50 was 211 nM.

Question: Which EC50 ([3]; imidazolopyrimidines, Fig. 2, read-out: 3D7 EC50) does the source give for `FC(F)(F)Oc1ccc(Nc2cc(Nc3nccn3-c3cccc(C(F)(F)F)c3)ncn2)cc1` [Compound 16] here?
Answer: Its EC50 is 420 nM.

Question: What about the solubility [10] of the same molecule?
Answer: The solubility was 36 µM (≈ 17.3 µg/mL).

Question: What about the “activity against a panel of 40 mammalian kinases” value [11] of the same molecule?
Answer: Its value is “did not exhibit significant activity”.
